The supplement of paper PMC10627819

Tests used:
Assay in all cases: Bliss interaction score (quartile over a dose matrix) (fitness difference); higher = more antagonism (negative = synergy)
B. subtilis 168 = test system: B. subtilis 168
Summary of the method: (§1)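 The Bliss score subtracts expected fitness, the product of the single-drug fitness values, from observed fitness. Fitness is plate-normalised OD595 at entry into stationary phase, relative to the robust no-drug mean and capped at 1, with single-drug fitness inferred from combinations. Summaries are quartiles over technical, biological and donor/recipient replicates.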

S. aureus DSM 20231 = test system: S. aureus DSM 20231
Summary of the method: as §1

S. pneumoniae D39V = test system: S. pneumoniae D39V
Summary of the method: as §1

S. aureus Newman = test system: S. aureus Newman
Summary of the method: as §1
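Note: first quartile when negative (synergy) and third quartile when positive (antagonism).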

SMILES | Bliss interaction score (B. subtilis 168) | Bliss interaction score (S. aureus DSM 20231) | Bliss interaction score (S. pneumoniae D39V) | Bliss interaction score (S. aureus Newman)
CO[C@@]12[C@H](COC(N)=O)C3=C(C(=O)C(C)=C(N)C3=O)N1C[C@@H]1N[C@@H]12 [MitomycinC] + CN[C@H](CC(C)C)C(=O)N[C@H]1C(=O)N[C@@H](CC(N)=O)C(=O)N[C@H]2C(=O)N[C@H]3C(=O)N[C@H](C(=O)N[C@H](C(=O)O)c4cc(O)cc(O)c4-c4cc3ccc4O)[C@H](O[C@H]3C[C@](C)(N)[C@@H](O)[C@H](C)O3)c3ccc(c(Cl)c3)Oc3cc2cc(c3O[C@@H]2O[C@H](CO)[C@@H](O)[C@H](O)[C@H]2O[C@H]2C[C@](C)(NCc3ccc(-c4ccc(Cl)cc4)cc3)[C@@H](O)[C@H](C)O2)Oc2ccc(cc2Cl)[C@H]1O [Oritavancin] | 0.017 | -0.0806 | -0.0514 | 0.0841
CO[C@@]12[C@H](COC(N)=O)C3=C(C(=O)C(C)=C(N)C3=O)N1C[C@@H]1N[C@@H]12 [MitomycinC] + CO[C@@H]1[C@@H](OC(N)=O)[C@@H](O)[C@H](Oc2ccc3c(O)c(NC(=O)c4ccc(O)c(CC=C(C)C)c4)c(=O)oc3c2C)OC1(C)C [Novobiocin] | -0.117 | -0.0588 | -0.11 | -0.137
CO[C@@]12[C@H](COC(N)=O)C3=C(C(=O)C(C)=C(N)C3=O)N1C[C@@H]1N[C@@H]12 [MitomycinC] + CO[C@H]1/C=C/O[C@@]2(C)Oc3c(C)c(O)c4c(O)c(c(/C=N/N5CCN(C)CC5)c(O)c4c3C2=O)NC(=O)/C(C)=C\C=C\[C@H](C)[C@H](O)[C@@H](C)[C@@H](O)[C@@H](C)[C@H](OC(C)=O)[C@@H]1C [Rifampicin] | 0.155 | -0.0914 | -0.117 | -0.0175
CO[C@@]12[C@H](COC(N)=O)C3=C(C(=O)C(C)=C(N)C3=O)N1C[C@@H]1N[C@@H]12 [MitomycinC] + COc1c(N2C[C@@H]3CCCN[C@@H]3C2)c(F)cc2c(=O)c(C(=O)O)cn(C3CC3)c12 [Moxifloxacin] | 0.0263 | 0.07 | 0.056 | -0.099
CO[C@@]12[C@H](COC(N)=O)C3=C(C(=O)C(C)=C(N)C3=O)N1C[C@@H]1N[C@@H]12 [MitomycinC] + COc1cc(Cc2cnc(N)nc2N)cc(OC)c1OC [Trimethoprim] | -0.108 | -0.102 | -0.141 | -0.127
CO[C@@]12[C@H](COC(N)=O)C3=C(C(=O)C(C)=C(N)C3=O)N1C[C@@H]1N[C@@H]12 [MitomycinC] + COc1ccc(C[C@H](N)C(=O)N[C@H]2[C@@H](O)[C@H](n3cnc4c(N(C)C)ncnc43)O[C@@H]2CO)cc1 [Puromycin] | -0.0693 | 0.0528 | 0.0762 | 0.0521
CO[C@@]12[C@H](COC(N)=O)C3=C(C(=O)C(C)=C(N)C3=O)N1C[C@@H]1N[C@@H]12 [MitomycinC] + C[n+]1ccc(-c2cc[n+](C)cc2)cc1 [Paraquat] | 0.0434 | -0.0406 | -0.0446 | 0.04
CO[C@@]12[C@H](COC(N)=O)C3=C(C(=O)C(C)=C(N)C3=O)N1C[C@@H]1N[C@@H]12 [MitomycinC] + Cc1cc(NS(=O)(=O)c2ccc(N)cc2)no1 [Sulfamethoxazol] | 0.082 | 0.036 | -0.0583 | 0.0863
CO[C@@]12[C@H](COC(N)=O)C3=C(C(=O)C(C)=C(N)C3=O)N1C[C@@H]1N[C@@H]12 [MitomycinC] + Cc1onc(-c2ccccc2)c1C(=O)N[C@@H]1C(=O)N2[C@@H]1SC(C)(C)[C@@H]2C(=O)O [Oxacillin] | -0.0799 | 0.0499 | 0.0896 | 0.046
CO[C@@]12[C@H](COC(N)=O)C3=C(C(=O)C(C)=C(N)C3=O)N1C[C@@H]1N[C@@H]12 [MitomycinC] + Cn1nnc(-c2ccc(-c3ccc(N4C[C@H](CO)OC4=O)cc3F)cn2)n1 [Tedizolid] | 0.0705 | -0.0817 | -0.124 | -0.0886
CO[C@@]12[C@H](COC(N)=O)C3=C(C(=O)C(C)=C(N)C3=O)N1C[C@@H]1N[C@@H]12 [MitomycinC] + O=C1CN(/N=C/c2ccc([N+](=O)[O-])o2)C(=O)N1 [Nitrofurantoin] | -0.0788 | -0.0298 | -0.145 | -0.0345
CO[C@@]12[C@H](COC(N)=O)C3=C(C(=O)C(C)=C(N)C3=O)N1C[C@@H]1N[C@@H]12 [MitomycinC] + Oc1cc(Cl)ccc1Oc1ccc(Cl)cc1Cl [Triclosan] | -0.0544 | -0.025 | 0.0578 | -0.0343
CO[C@@H]1[C@@H](OC(N)=O)[C@@H](O)[C@H](Oc2ccc3c(O)c(NC(=O)c4ccc(O)c(CC=C(C)C)c4)c(=O)oc3c2C)OC1(C)C [Novobiocin] + C/C(=C\C(=O)OCCCCCCCCC(=O)O)C[C@@H]1OC[C@H](C[C@@H]2O[C@H]2[C@@H](C)[C@H](C)O)[C@@H](O)[C@H]1O [Pseudomonic acid] | -0.0516 | -0.0173 | 0.241 | -0.0166
CO[C@@H]1[C@@H](OC(N)=O)[C@@H](O)[C@H](Oc2ccc3c(O)c(NC(=O)c4ccc(O)c(CC=C(C)C)c4)c(=O)oc3c2C)OC1(C)C [Novobiocin] + CC1(C)S[C@@H]2[C@H](NC(=O)Cc3ccccc3)C(=O)N2[C@H]1C(=O)O [PenicillinG] | 0.0716 | -0.0356 | -0.0976 | -0.0408
